The values that follow come from ChEMBL document CHEMBL5038613, “Synthesis, functional proteomics and biological evaluation of new 5-pyrazolyl ureas as potential anti-angiogenic compounds” (Eur J Med Chem, 2021).

For data set [1], the system named is HL-60(TB). Put plainly: Antiproliferative activity against human HL-60(TB) cells assessed as inhibition of cell growth at 10 uM. Type of data set: functional. Also noted: scale not given: the % may be the effect or the level left.
Data set [2] relates to NCI-H522. Kind of data set: Antiproliferative activity against human NCI-H522 cells assessed as inhibition of cell growth at 10 uM. Type of data set: functional. Also noted: scale not given: the % may be the effect or the level left.
Data set [3] concerns HUVEC. Put plainly: (§1) Antiproliferative activity against HUVEC assessed as inhibition of cell growth at 10 uM measured after 24 hrs by EdU incorporation based fluorescence microscopic analysis. It is filed as toxicity. Conditions: human, huvec, 24 h, 10 µM.
For data set [4], the system named is HUVEC. Put plainly: (§2) Antiproliferative activity against HUVEC assessed as inhibition of cell growth at 20 uM measured after 24 hrs by EdU incorporation based fluorescence microscopic analysis. Type of data set: toxicity. Conditions: human, huvec, 24 h, 20 µM.
In data set [5] the test system is HUVEC. Put plainly: Antiproliferative activity against HUVEC assessed as inhibition of cell growth at 100 uM measured after 24 hrs by EdU incorporation based fluorescence microscopic analysis. Type of data set: toxicity. Conditions: human.
The subject of data set [6] is HUVEC. Put plainly: Anti-angiogenic activity against HUVEC cells assessed as decrease in ERK phosphorylation level at 20 uM preincubated for 10 mins followed by VEGF addition and measured after 20 mins by western blot analysis. Conditions: Homo sapiens, time 30.0 min. Type of data set: functional, cell-based.
The subject of data set [7] is CCRF-CEM. Kind of data set: Antiproliferative activity against human CCRF-CEM cells assessed as inhibition of cell growth at 10 uM. Type of data set: functional. More on the design: scale not given: the % may be the effect or the level left.
For data set [8], the system named is K562. Kind of data set: Antiproliferative activity against human K-562 cells assessed as inhibition of cell growth at 10 uM. Type of data set: functional. Also noted: scale not given: the % may be the effect or the level left.
The subject of data set [9] is RPMI-8226. Kind of data set: Antiproliferative activity against human RPMI-8226 cells assessed as inhibition of cell growth at 10 uM. It is filed as functional. Also noted: scale not given: the % may be the effect or the level left.
In data set [10] the test system is HCT-116. Put plainly: Antiproliferative activity against human HCT-116 cells assessed as inhibition of cell growth at 10 uM. Type of data set: functional. More on the design: scale not given: the % may be the effect or the level left.
For data set [11], the system named is SK-MEL-2. Kind of data set: Antiproliferative activity against human SK-MEL-2 cells assessed as inhibition of cell growth at 10 uM. It is filed as functional. More on the design: scale not given: the % may be the effect or the level left.
For data set [12], the system named is SK-MEL-5. Put plainly: Antiproliferative activity against human SK-MEL-5 cells assessed as inhibition of cell growth at 10 uM. It is filed as functional. More on the design: scale not given: the % may be the effect or the level left.
The test system of data set [13] is M14. Kind of data set: Antiproliferative activity against human M14 cells assessed as inhibition of cell growth at 10 uM. It is filed as functional. Also noted: scale not given: the % may be the effect or the level left.
A short description of data set [14]: as §1. Type of data set: toxicity. Conditions: human, HUVEC cells, read-out: Activity.
Data set [15] can be described thus: as §2. It is filed as toxicity. Conditions: human, HUVEC cells, read-out: Activity.
Data set [16] concerns HUVEC. Put plainly: Anti-angiogenic activity against HUVEC cells assessed as decrease in ERK phosphorylation level at 20 uM preincubated for 10 mins followed by VEGF addition and measured after 20 mins in presence of Na3VO4 by western blot analysis. Type of data set: functional, cell-based. Conditions: Homo sapiens, time 30.0 min.
The subject of data set [17] is HUVEC. Put plainly: Anti-angiogenic activity against HUVEC cells assessed as effect on SRC phosphorylation at 20 uM preincubated for 10 mins followed by VEGF addition and measured after 20 mins by western blot analysis. Type of data set: functional, cell-based. Conditions: Homo sapiens, time 30.0 min. In general terms: A western blot detects proteins with antibodies after separation by electrophoresis.

In data set [18] the test system is HUVEC. Kind of data set: Effect on MAPK1 expression level in HUVEC cells at 100 uM by western blot analysis. Type of data set: functional, cell-based. Conditions: Homo sapiens.
Data set [19] concerns HUVEC. Put plainly: Effect on PP1gamma expression level in HUVEC cells at 1 uM by western blot analysis. Type of data set: functional, cell-based. Conditions: Homo sapiens.

Activity calls are given as the source filed them. No cut-off for these calls is given here.

Turning to `CCCC(O)Cn1ncc(C(=O)OCC)c1NC(=O)NCc1cccc(F)c1` (configuration not stated), the Activity in data set [1] is 41%; in data set [2], 42%; in [3], “Non-Toxic”; in [4] it was “Non-Toxic”; in data set [5], “Toxic”. In addition, in data set [6], the result was inactive.
For the compound `CCOC(=O)c1cnn(CC(C)O)c1NC(=O)NCc1cccc(F)c1` (configuration not stated), the Activity in [7] turned out to be 100%.
With `CCOC(=O)c1cnn(CC(C)O)c1NC(=O)NCc1ccc(F)cc1` (configuration not stated), in data set [1], the Activity was 53%.
Turning to `CCCC(O)Cn1ncc(C(=O)OCC)c1NC(=O)NCc1ccc(C(F)(F)F)cc1` (configuration not stated), the Activity in [1] stood at 60%; in data set [7] it was 60%; in data set [2] it was 50%; in [8], 65%; in data set [9], 74%; in [10], 59%. For the same compound, the Activity was 49% in data set [11] and 59% in [12].
`CCOC(=O)c1cnn(CC(C)O)c1NC(=O)NCc1ccccc1F` (configuration not stated): the Activity in data set [1] turned out to be 44%.
With `CCCC(O)Cn1ncc(C(=O)OCC)c1NC(=O)NCc1ccccc1C(F)(F)F` (configuration not stated), in [2], the Activity turned out to be 59%.
Turning to `CCOC(=O)c1cnn(CC(C)O)c1NC(=O)NCc1ccccc1C(F)(F)F` (configuration not stated), in data set [1], the Activity came out at 42%.
For `CCOC(=O)c1cnn(CC(O)CC)c1NC(=O)NCc1ccc(C(F)(F)F)cc1` (configuration not stated), the Activity in data set [2] amounted to 40%.
Consider `CCCC(O)Cn1ncc(C(=O)OCC)c1NC(=O)NCc1cccc(C(F)(F)F)c1` (configuration not stated), for which the Activity was 100% in data set [7]; 54% in data set [2]; 53% in data set [8]; 53% in [9]; 42% in data set [13]; “Toxic” in data set [5]. Besides, the inhibition at 24 h, 10 µM in data set [14] worked out at 20%. In addition, the inhibition at 24 h, 20 µM in [15] turned out to be 30%. Further, the result in data set [6], in [18] and in data set [19] was Active. In addition, the outcome in data set [16] and in data set [17] was inactive.
In the case of `CCOC(=O)c1cnn(CC(O)CC)c1NC(=O)NCc1cccc(F)c1` (configuration not stated), in data set [2], the Activity amounted to 40%.
On the same count and under the same terms, the value for `CCCC(O)Cn1ncc(C(=O)OCC)c1NC(=O)NCc1ccccc1F` (configuration not stated) was 44%.
In the case of `CCCC(O)Cn1ncc(C(=O)OCC)c1NC(=O)Nc1cccc(C(F)(F)F)c1` (configuration not stated), the Activity entry in data set [3] was “Non-Toxic”; in data set [4], “Non-Toxic”; in data set [5], “Toxic”. Also, the result in data set [6], in data set [16] and in [17] was inactive.
Turning to `CCCC(O)Cn1ncc(C(=O)OCC)c1NC(=O)NCc1ccc(F)cc1` (configuration not stated), the Activity in data set [2] is 53%.
